13 molecules from PubChem BioAssay (NCI) can be followed below.

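All cell lines were grown in 96-well plates and treated with compound for 48 hours. Abbreviation: GI50, concentration required for 50% inhibition of growth. TGI: total growth inhibition.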

Among the test systems are TK-10 renal; BT-549 breast; OVCAR-8 ovarian; SF-268 CNS; SF-295 CNS; K-562 leukemia; HT29 colon; NCI-H23 lung; SK-MEL-2 melanoma; OVCAR-5 ovarian.
Common to all, as to assay: NCI tumour cell line growth inhibition, 48 h

Consider `CCN(CC)CCC(CNc1c(C)cnc2cc(Cl)ccc12)c1ccc(Cl)c(Cl)c1` (stereo not given), for which the GI50 was 5.03 µM with TK-10 renal; 8.2 µM in the experiment with BT-549 breast; 9.89 µM in the experiment with OVCAR-8 ovarian; 8.3 µM with SF-268 CNS; 1.67 µM in the experiment on SF-295 CNS; 1.2 µM in the experiment with K-562 leukemia. In addition, the GI50 was 1.14 µM in the experiment with HT29 colon, 5.62 µM in the experiment on NCI-H23 lung, 2.67 µM in the experiment on SK-MEL-2 melanoma and 4.62 µM in the experiment on OVCAR-5 ovarian. Besides, the TGI in the experiment on TK-10 renal was 17.1 µM; in the experiment with BT-549 breast it was 21.3 µM; with OVCAR-8 ovarian, 24.9 µM; in the experiment on SF-268 CNS, 23.8 µM; with SF-295 CNS, 3.75 µM; with K-562 leukemia, 3.51 µM. Also, the TGI amounted to 10.1 µM in the experiment on HT29 colon, 20.6 µM with NCI-H23 lung, 7.73 µM in the experiment on SK-MEL-2 melanoma and 18.9 µM in the experiment on OVCAR-5 ovarian.

On to `NCCNc1nc2ccc(F)cc2c2c(=O)c3cc(F)ccc3sc12`, for which the GI50 with TK-10 renal is 2.07 µM; with BT-549 breast it was 9.72 µM; in the experiment with OVCAR-8 ovarian, 2.06 µM; in the experiment with SF-268 CNS, 1.62 µM; in the experiment with SF-295 CNS it was 1.88 µM; with K-562 leukemia it was 2.14 µM. Moreover, the GI50 is 1.61 µM in the experiment with HT29 colon, 1.65 µM with NCI-H23 lung, 1.95 µM in the experiment with SK-MEL-2 melanoma and 1.77 µM with OVCAR-5 ovarian. The TGI worked out at 3.57 µM in the experiment on TK-10 renal; 24.1 µM with BT-549 breast; 4.6 µM in the experiment on OVCAR-8 ovarian; 4.47 µM in the experiment on SF-268 CNS; 3.59 µM with SF-295 CNS; 5.41 µM with K-562 leukemia. Further, the TGI with HT29 colon was found to be 3.06 µM; in the experiment on NCI-H23 lung, 3.18 µM; in the experiment with SK-MEL-2 melanoma, 4.28 µM; in the experiment on OVCAR-5 ovarian it was 3.67 µM.

`Nc1nc(N)c2cc(S(=O)(=O)c3ccccc3)ccc2n1`: the GI50 is 4.36 µM with TK-10 renal; 6.59 µM with BT-549 breast; 1.31 µM in the experiment on OVCAR-8 ovarian; 3.13 µM in the experiment on SF-268 CNS; 0.792 µM in the experiment on SF-295 CNS; 0.339 µM with K-562 leukemia. Moreover, the GI50 in the experiment on HT29 colon was 0.634 µM; in the experiment on NCI-H23 lung, 3.03 µM; in the experiment on SK-MEL-2 melanoma it was 25.3 µM; in the experiment with OVCAR-5 ovarian it was 2.21 µM. The TGI is above 100 µM with TK-10 renal; 92.3 µM in the experiment with BT-549 breast; above 100 µM in the experiment on OVCAR-8 ovarian; above 100 µM in the experiment with SF-268 CNS; 51.9 µM in the experiment on SF-295 CNS; above 100 µM in the experiment with K-562 leukemia. Moreover, the TGI in the experiment on HT29 colon, in the experiment on NCI-H23 lung, with SK-MEL-2 melanoma and in the experiment with OVCAR-5 ovarian was above 100 µM in each case.

On to `Cn1c(=S)c2[nH]c(SCc3cccnc3)nc2n(C)c1=O`, for which the TGI in the experiment on TK-10 renal, in the experiment with BT-549 breast, in the experiment with OVCAR-8 ovarian, in the experiment on SF-268 CNS, in the experiment with SF-295 CNS and in the experiment with K-562 leukemia was above 100 µM in each case. Also, the TGI in the experiment with HT29 colon, in the experiment on NCI-H23 lung, in the experiment on SK-MEL-2 melanoma and in the experiment on OVCAR-5 ovarian was above 100 µM each time.

With `CCOc1cc(CCNC)c2c(ccc3ccc(OC)c(O)c32)c1OC`, the TGI in the experiment on TK-10 renal was 32.7 µM; in the experiment with BT-549 breast it was 30.1 µM; in the experiment with OVCAR-8 ovarian, 29.4 µM; in the experiment on SF-268 CNS it was 38.3 µM; with SF-295 CNS, 30.1 µM; in the experiment on K-562 leukemia it was above 100 µM. Moreover, the TGI was 30.7 µM with HT29 colon, 27.1 µM in the experiment with NCI-H23 lung, 34.2 µM in the experiment with SK-MEL-2 melanoma and 29.5 µM in the experiment on OVCAR-5 ovarian.

`NC(=O)/C=C/c1c[nH]c2nccnc12`: the TGI with TK-10 renal was 6.26 µM; with BT-549 breast, 8.09 µM; with OVCAR-8 ovarian, above 87.5 µM; in the experiment with SF-268 CNS it was above 21.9 µM; with SF-295 CNS it was 28.9 µM; in the experiment with K-562 leukemia it was above 18 µM. The TGI in the experiment on HT29 colon was above 25.2 µM; in the experiment with NCI-H23 lung, 2.74 µM; with SK-MEL-2 melanoma, 3.95 µM; in the experiment on OVCAR-5 ovarian it was 0.662 µM.

Consider `COc1ccc2c3c1OC1C4(CCC5C(C2)N(CC2CC2)CCC351)OCCO4` (stereo not given), for which the TGI with TK-10 renal, in the experiment with BT-549 breast, in the experiment on OVCAR-8 ovarian, with SF-268 CNS, in the experiment on SF-295 CNS and in the experiment on K-562 leukemia was above 100 µM each time. Besides, the TGI in the experiment on HT29 colon, in the experiment with NCI-H23 lung, in the experiment on SK-MEL-2 melanoma and in the experiment with OVCAR-5 ovarian was above 100 µM in each case.

Regarding `COC(=O)C(Br)(C(=O)OC)C(Br)C(Br)C(Br)c1ccccc1` (stereo not given), the GI50 in the experiment with TK-10 renal was 2.35 µM; with BT-549 breast, 12.4 µM; in the experiment on OVCAR-8 ovarian, 3.03 µM; in the experiment with SF-268 CNS, 5.5 µM; with SF-295 CNS it was 17 µM; in the experiment on K-562 leukemia, 2.95 µM. Also, the GI50 in the experiment on HT29 colon is 1.8 µM; in the experiment on NCI-H23 lung, 5.78 µM; in the experiment with SK-MEL-2 melanoma, 14.4 µM; with OVCAR-5 ovarian, 3.3 µM. For the same molecule, the TGI stood at 6.19 µM in the experiment with TK-10 renal; 25.3 µM with BT-549 breast; 8.15 µM with OVCAR-8 ovarian; 16.5 µM in the experiment with SF-268 CNS; 33.3 µM in the experiment on SF-295 CNS; 9.93 µM with K-562 leukemia. Also, the TGI in the experiment with HT29 colon stood at 3.34 µM; in the experiment on NCI-H23 lung, 13.9 µM; in the experiment on SK-MEL-2 melanoma it was 27.8 µM; with OVCAR-5 ovarian, 13 µM.

As for `O=C(Oc1c(Cl)c(Cl)c(Cl)c(Cl)c1Cl)C1CCCN1C(=O)OCc1ccccc1` (stereo not given), the GI50 in the experiment with TK-10 renal was 3.13 µM; in the experiment with BT-549 breast, 3.75 µM; with OVCAR-8 ovarian, 3.43 µM; in the experiment with SF-268 CNS, 4 µM; with SF-295 CNS, 2.75 µM; in the experiment with K-562 leukemia it was 3.43 µM. Besides, the GI50 was 3.71 µM in the experiment on HT29 colon, 3.17 µM in the experiment on NCI-H23 lung, 2.28 µM in the experiment with SK-MEL-2 melanoma and 4.28 µM with OVCAR-5 ovarian. The TGI in the experiment with TK-10 renal stood at 8.85 µM; in the experiment on BT-549 breast it was 13.1 µM; in the experiment on OVCAR-8 ovarian, 15.9 µM; with SF-268 CNS, 15.6 µM; with SF-295 CNS it was 8.47 µM; in the experiment on K-562 leukemia it was 19.3 µM. For the same molecule, the TGI in the experiment on HT29 colon was 12 µM; with NCI-H23 lung it was 10.1 µM; with SK-MEL-2 melanoma it was 4.49 µM; with OVCAR-5 ovarian, 17.1 µM.

For the molecule `COc1ccc(-c2cncn2-c2ccc(-c3nc4cc(OC)c(OC)c(OC)c4s3)cc2)cc1N`, the GI50 in the experiment on TK-10 renal was 4.16 µM; in the experiment with BT-549 breast, 6.21 µM; with OVCAR-8 ovarian, 6.19 µM; in the experiment with SF-268 CNS, 47 µM; in the experiment with SF-295 CNS, 4.44 µM; in the experiment on K-562 leukemia, 3.38 µM. The GI50 in the experiment on HT29 colon is 3.87 µM; in the experiment with NCI-H23 lung it was 4.76 µM; in the experiment on SK-MEL-2 melanoma, 6.04 µM; in the experiment with OVCAR-5 ovarian, above 100 µM. The TGI in the experiment with TK-10 renal, in the experiment on BT-549 breast, with OVCAR-8 ovarian, in the experiment with SF-268 CNS, in the experiment on SF-295 CNS and in the experiment with K-562 leukemia was above 100 µM throughout. The TGI in the experiment with HT29 colon, in the experiment with NCI-H23 lung, with SK-MEL-2 melanoma and with OVCAR-5 ovarian was above 100 µM throughout.

In the case of `COc1ncc(-c2ccc3ncnc(Nc4cccc(Cl)c4)c3c2)cc1NS(C)(=O)=O`, the GI50 is 0.183 µM in the experiment with TK-10 renal; 1.92 µM with BT-549 breast; 3.75 µM in the experiment on OVCAR-8 ovarian; 1.99 µM in the experiment on SF-268 CNS; 1.71 µM with SF-295 CNS; 4.51 µM in the experiment on K-562 leukemia. Besides, the GI50 in the experiment with HT29 colon is 1.07 µM; in the experiment with NCI-H23 lung it was 1.62 µM; in the experiment with SK-MEL-2 melanoma, 2.27 µM; in the experiment on OVCAR-5 ovarian, 0.273 µM. The TGI with TK-10 renal is 1.4 µM; with BT-549 breast it was 9.32 µM; in the experiment on OVCAR-8 ovarian, above 100 µM; with SF-268 CNS, 19.2 µM; in the experiment with SF-295 CNS, 10.8 µM; in the experiment with K-562 leukemia it was 85.3 µM. Moreover, the TGI with HT29 colon is 13.1 µM; in the experiment with NCI-H23 lung, 8.69 µM; in the experiment on SK-MEL-2 melanoma, 8.25 µM; in the experiment with OVCAR-5 ovarian, 6.51 µM.

As to `COc1ccc(C(=O)c2cc(C)c(OC)c(C)c2)c(OC)c1OC(=O)C(Cl)Cl`, the GI50 was 17.2 µM in the experiment with TK-10 renal; 0.0293 µM in the experiment on BT-549 breast; 0.0456 µM with OVCAR-8 ovarian; 0.198 µM with SF-268 CNS; 0.164 µM with SF-295 CNS; 0.0336 µM in the experiment on K-562 leukemia. Further, the GI50 in the experiment with HT29 colon was 3.44 µM; in the experiment with NCI-H23 lung, 0.0681 µM; in the experiment with SK-MEL-2 melanoma, 0.132 µM; in the experiment on OVCAR-5 ovarian, 5.51 µM. Moreover, the TGI with TK-10 renal was above 100 µM; in the experiment on BT-549 breast it was 1.7 µM; with OVCAR-8 ovarian, above 100 µM; in the experiment on SF-268 CNS, above 100 µM; with SF-295 CNS it was above 25.1 µM; in the experiment on K-562 leukemia, above 100 µM. Also, the TGI is above 49.8 µM in the experiment on HT29 colon, above 100 µM in the experiment on NCI-H23 lung, above 100 µM with SK-MEL-2 melanoma and above 100 µM in the experiment with OVCAR-5 ovarian.

As to `COc1ccc(-n2nc(C(=O)NCC(=O)Nc3nc4cc(OC)ccc4s3)c3ccccc3c2=O)cc1`, the GI50 in the experiment on TK-10 renal is 0.389 µM; in the experiment on BT-549 breast it was 3.04 µM; with OVCAR-8 ovarian, 0.533 µM; in the experiment on SF-268 CNS, 0.949 µM; in the experiment on SF-295 CNS it was 0.346 µM; in the experiment with K-562 leukemia, above 37.7 µM. Besides, the GI50 in the experiment with HT29 colon was 0.441 µM; in the experiment with NCI-H23 lung, 1.32 µM; in the experiment on SK-MEL-2 melanoma it was 1.69 µM; in the experiment on OVCAR-5 ovarian, 2.32 µM. The TGI in the experiment on TK-10 renal is 1.52 µM; with BT-549 breast, 25.9 µM; with OVCAR-8 ovarian, 2 µM; with SF-268 CNS it was 5.01 µM; with SF-295 CNS, 1.62 µM; in the experiment on K-562 leukemia, above 100 µM. The TGI in the experiment on HT29 colon was 1.78 µM; in the experiment with NCI-H23 lung, 9 µM; with SK-MEL-2 melanoma, 5.12 µM; with OVCAR-5 ovarian, above 20.7 µM.
